Test results taken from ChEMBL document CHEMBL1201862, “PubChem BioAssay data set” (2004).
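48-hour exposure; five concentrations; linearly interpolated endpoints. GI50: concentration for 50% inhibition of growth.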 Calls of active or inactive are those of the source. No stated cut-off is given here; in the data, active = GI50 up to about 1.1 µM and inactive = higher.

What was measured:
Assay in all cases: NCI-60 cell line screen, 48 h
DMS-114 = test system: DMS-114
786-0 = test system: 786-0
SK-MEL-2 = test system: SK-MEL-2
RPMI-8226 = test system: RPMI-8226
HT-29 = test system: HT-29
UACC-257 = test system: UACC-257
SNB-75 = test system: SNB-75
HCT-116 = test system: HCT-116
ACHN = test system: ACHN
UO-31 = test system: UO-31
OVCAR-3 = test system: OVCAR-3
SNB-78 = test system: SNB-78
U-251 = test system: U-251
RXF 631 = test system: RXF 631
NCI-H522 = test system: NCI-H522
EKVX = test system: EKVX
NCI-H23 = test system: NCI-H23
HOP-92 = test system: HOP-92
KM12 = test system: KM12
SF-268 = test system: SF-268
NCI-H226 = test system: NCI-H226
OVCAR-8 = test system: OVCAR-8
OVCAR-4 = test system: OVCAR-4
Malme-3M = test system: Malme-3M
OVCAR-5 = test system: OVCAR-5
SK-MEL-5 = test system: SK-MEL-5
A549 = test system: A549
MOLT-4 = test system: MOLT-4
HL-60 = test system: HL-60
SW-620 = test system: SW-620
HCT-15 = test system: HCT-15
SF-539 = test system: SF-539
A498 = test system: A498
LOX IMVI = test system: LOX IMVI
LXFL 529 = test system: LXFL 529
CAKI-1 = test system: CAKI-1
KM-20L2 = test system: KM-20L2
K562 = test system: K562
SF-295 = test system: SF-295
CCRF-CEM = test system: CCRF-CEM
DLD-1 = test system: DLD-1
XF498 = test system: XF498
HOP-62 = test system: HOP-62
COLO 205 = test system: COLO 205
TK-10 = test system: TK-10
SN12C = test system: SN12C
HCC 2998 = test system: HCC 2998
M19-MEL = test system: M19-MEL
SK-MEL-28 = test system: SK-MEL-28
SNB-19 = test system: SNB-19
SR = test system: SR
RXF 393 = test system: RXF 393
SK-OV-3 = test system: SK-OV-3
NCI-H460 = test system: NCI-H460
UACC-62 = test system: UACC-62
M14 = test system: M14
IGROV-1 = test system: IGROV-1
DMS-273 = test system: DMS-273

Measured: GI50

COc1ccc2nc3c(c(NCCCN(C)C)c2c1)CCCC3
inactive: DMS-114 13.9 µM | 786-0 15.4 µM | SK-MEL-2 17.3 µM | RPMI-8226 6.25 µM | HT-29 5.41 µM | UACC-257 17 µM | SNB-75 13.2 µM | HCT-116 4.74 µM | ACHN 20.4 µM | UO-31 16 µM | OVCAR-3 19.4 µM | SNB-78 7.83 µM | U-251 15.5 µM | RXF 631 14.9 µM | NCI-H522 14.9 µM | EKVX 17.4 µM | NCI-H23 17.1 µM | HOP-92 5.28 µM | KM12 12.5 µM | SF-268 > 10 µM | NCI-H226 16.3 µM | OVCAR-8 15 µM | OVCAR-4 4.43 µM | Malme-3M 19.7 µM | OVCAR-5 13.5 µM | SK-MEL-5 15.8 µM | A549 21.4 µM | MOLT-4 3.4 µM | HL-60 7.67 µM | SW-620 10.7 µM | SF-539 16.8 µM | A498 20.3 µM | LOX IMVI 12.8 µM | LXFL 529 12.7 µM | CAKI-1 11.9 µM | KM-20L2 6.7 µM | K562 2.25 µM | SF-295 14.6 µM | CCRF-CEM 4.83 µM | DLD-1 7.66 µM | XF498 4.15 µM | HOP-62 16.4 µM | COLO 205 10.8 µM | TK-10 26.1 µM | SN12C 17.2 µM | HCC 2998 8.81 µM | M19-MEL 17.1 µM | SK-MEL-28 16.9 µM | SNB-19 21.6 µM | SR 2.42 µM | RXF 393 14.8 µM | SK-OV-3 20.5 µM | NCI-H460 10.3 µM | UACC-62 16.8 µM | M14 13.3 µM | IGROV-1 19.3 µM | DMS-273 11.8 µM
16.3 µM: HCT-15
